Values of other authors, collected in patent US8986418B1, “Method and system for agricultural fertigation” (priority 2008, dated 2015).
Where two headings read alike, the source gives them in different places.

| Solubility with anion CO3^−2 | Solubility with anion Cl | Solubility with anion HCO3^− | Solubility with anion NO3^− | Solubility with anion OH^− | Solubility with anion PO4^−3 | Solubility with anion SO4^−2 | Solubility with anion S^−2 | Solubility with anion CO3^−2 (listed as Fe^+3) | Solubility with anion HCO3^− (listed as Fe^+3) | Solubility with anion OH^− (listed as Fe^+3) | Structure (SMILES) |
| --- | --- | --- | --- | --- | --- | --- | --- | --- | --- | --- | --- |
| S (S means soluble (over 5,000 ppm)) | S (S means soluble (over 5,000 ppm)) | S (S means soluble (over 5,000 ppm)) | S (S means soluble (over 5,000 ppm)) | S (S means soluble (over 5,000 ppm)) | S (S means soluble (over 5,000 ppm)) | S (S means soluble (over 5,000 ppm)) | S (S means soluble (over 5,000 ppm)) |  |  |  | [K+] [K^+] |
| CO2 | S (S means soluble (over 5,000 ppm)) | S (S means soluble (over 5,000 ppm)) | S (S means soluble (over 5,000 ppm)) |  | S (S means soluble (over 5,000 ppm)) | S (S means soluble (over 5,000 ppm)) |  |  |  |  | [H+] [H^+] |

Continued, compound first:

| Structure (SMILES) | Solubility with anion CO3^−2 | Solubility with anion Cl | Solubility with anion HCO3^− | Solubility with anion NO3^− | Solubility with anion OH^− | Solubility with anion PO4^−3 | Solubility with anion SO4^−2 | Solubility with anion S^−2 | Solubility with anion CO3^−2 (listed as Fe^+3) | Solubility with anion HCO3^− (listed as Fe^+3) | Solubility with anion OH^− (listed as Fe^+3) |
| --- | --- | --- | --- | --- | --- | --- | --- | --- | --- | --- | --- |
| [Mg+2] [Mg^+2] | VSS (VSS means very slightly soluble (20-2,000 ppm)) | S (S means soluble (over 5,000 ppm)) | S (S means soluble (over 5,000 ppm)) | S (S means soluble (over 5,000 ppm)) | I (I means insoluble (<20 ppm)) | I (I means insoluble (<20 ppm)) | S (S means soluble (over 5,000 ppm)) |  |  |  |  |
| [Mn+2] [Mn^+2] | I (I means insoluble (<20 ppm)) | S (S means soluble (over 5,000 ppm)) |  | S (S means soluble (over 5,000 ppm)) | I (I means insoluble (<20 ppm)) | I (I means insoluble (<20 ppm)) | S (S means soluble (over 5,000 ppm)) | I (I means insoluble (<20 ppm)) |  |  |  |
| [Fe+2] [Fe^+2] | VSS (VSS means very slightly soluble (20-2,000 ppm)) | S (S means soluble (over 5,000 ppm)) | SS (SS means slightly soluble (2,000 to 5,000 ppm)) | S (S means soluble (over 5,000 ppm)) | VSS (VSS means very slightly soluble (20-2,000 ppm)) | I (I means insoluble (<20 ppm)) | S (S means soluble (over 5,000 ppm)) | I (I means insoluble (<20 ppm)) | I (I means insoluble (<20 ppm)) | I (I means insoluble (<20 ppm)) | I (I means insoluble (<20 ppm)) |
